The values below come from patent US10934326B2, “Peripheral modifications on pocket-redesigned vancomycin analogs synergistically improve antimicrobial potency and durability” (priority 2016, dated 2021).

Data set [1] deals with Enterococcus faecium (VanA VRE, ATCC BAA-2317). Description: In vitro antimicrobial assay (MIC), VanA E. faecium. In kind it is cell-based. The settings on record: for antibiotic susceptibility profile of the strain: VanA E. faecium ATCC BAA-2317. From the text:
(§1) One day before a study was run, fresh cultures of vancomycin-sensitive Staphylococcus aureus (VSSA strain ATCC 25923), methicillin and oxacillin-resistant Staphylococcus aureus subsp. aureus (MRSA strain ATCC 43300), vancomycin-resistant Enterococcus faecalis (VanA VRE, BM4166), Enterococcus faecium (VanA VRE, ATCC BAA-2317), vancomycin-resistant Enterococcus faecalis (VanB VRE, strain ATCC 51299), Escherichia coli (ATCC 25922), Acinetobacter baumannii (ATCC BAA-1710), Pseudomonas aeruginosa (ATCC 15442), Klebsiella pneumoniae (ATCC 700603) were inoculated and grown in an orbital shaker at 37° C. in 100% Mueller-Hinton broth (VSSA, MRSA and VanB VRE), 100% brain-heart infusion broth (VanA VRE, A. baumannii and K. pneumoniae) or 100% Luria broth (E. coli and P. aeruginosa). After 24 hours, the bacterial stock solutions were serially diluted with the culture medium (10% Mueller-Hinton broth for VSSA, MRSA and VanB VRE or 10% brain-heart infusion broth for VanA VRE A. baumannii and K. pneumoniae or 10% Luria Broth for E. coli and P. aeruginosa) to achieve a turbidity equivalent to a 1:100 dilution of a 0.5 M McFarland solution. This diluted bacterial stock solution was then inoculated in a 96-well V-shaped glass coated microtiter plate, supplemented with serial diluted aliquots of the antibiotic solution in DMSO (4 μL), to achieve a total assay volume of 0.1 mL. The plate was then incubated at 37° C. for 18 hours, after which minimal inhibitory concentrations (MICs) were determined by monitoring the cell growth (observed as a pellet) in the wells.
(§2) The lowest concentration of antibiotic (in μg/mL) capable of eliminating cell growth in the wells is the reported MIC value. The reported MIC values for the vancomycin analogues were determined against vancomycin as a standard in the first well.*
(§3) [*Clinical and Laboratory Standards Institute. Methods for Dilution Antimicrobial Susceptibility Tests for Bacteria That Grow Aerobically; Approved Standard, 7th ed.; CLSI document M07-A8; Clinical and Laboratory Standards Institute: Wayne, Pa., 2009.]

Data set [2] relates to VanA VRE (E. faecalis BM4166 and E. faecium ATCC BAA-2317). Description: Resistance development study (serial passaging at 0.5×MIC). It counts as cell-based, Enterococcus faecalis; Enterococcus faecium. Particulars: 0.5×MIC serial exposure, MICs monitored daily. Here is the method:
However, an additional and even more important feature of the expression of multiple independent mechanisms of action is a mechanism's impact on the rate at which bacterial resistance may emerge.
The MICs of the vancomycin analogues against vancomycin-resistant Enterococcus faecalis (VanA VRE, BM4166) and Enterococcus faecium (VanA VRE, ATCC BAA-2317) were determined. […] A new MIC assay was performed with the same protocol. This process was repeated for 50 passages, and the fold increase in MIC was determined at each passage. [****Pollard et al., J. Antimicrob. Chemother. 2012, 67:2665-2672.]

Data set [3] relates to vancomycin-resistant Enterococcus faecalis (VanA VRE, BM4166). Description: In vitro antimicrobial assay (MIC), VanA E. faecalis. It counts as cell-based.
Description: as §1, §2, §3

Data set [4] deals with VanA VRE (E. faecalis BM 4166 and E. faecium ATCC BAA-2317). Description: Cell wall permeability assay (propidium iodide uptake). It counts as cell-based, Enterococcus faecalis; Enterococcus faecium. Particulars: 10 μM compound. The source says:
The effect of the compounds on cell membrane permeability was examined by measuring cytoplasmic membrane uptake of the fluorescent probe propidium iodide in the same VanA vancomycin-resistant E. faecalis (BM 4166) and E. faecium (ATCC BAA-2317) strains. This fluorescent probe only enters cells with permeabilized cell membranes and is detected by the emission of fluorescence upon intracellular nucleic acid binding [Boulos et al., J Microbiol Methods 1999, 37(1):77-86].
Fresh, mid-log phase VanA VRE in pH 7.2 buffer at 25° C. were preincubated with propidium iodide (10 μM) for 5 minutes before the test compounds were added, monitoring the fluorescence emission at 617 nm (excitation at 535 nm) over time, both pre (5 minutes) and post (15 minutes) compound addition. Rapid and sustained increases in fluorescence intensity are observed immediately upon addition of test compounds that induce bacterial cell membrane permeability.
One day before a study was run, cultures of vancomycin-resistant Enterococcus faecalis (VanA VRE, BM4166) and Enterococcus faecium (VanA VRE, ATCC BAA-2317), were inoculated and grown in an orbital shaker at 37° C. in 100% brain-heart infusion broth for 12 hours. The above bacterial solution was subjected to a subculture to obtain fresh mid-log phase bacterial cells (total volume of bacterial suspension=7 mL, incubation time=6 hours, OD600=0.6). After the cultured bacteria were harvested (3000 rpm, 4° C., 20 minutes), the white bacterial precipitate was washed and resuspended in 5 mM glucose and 5 mM HEPES buffer (1:1, 500 μL, pH=7.2).
This bacterial suspension (130 μL) was charged into a 96-well black plate with a clear bottom (Corning 3650). The propidium iodide dye (10 μL, 150 μM DMSO solution) was added to the above suspension and the fluorescence was monitored at 25° C. for 5 minutes at 30 second intervals using a microplate reader (Molecular Devices®, Max Gemini EX) at an excitation wavelength of 535 nm and an emission wavelength of 617 nm. The test compound (150 μM, 10 μL) was added to the cell suspension and the fluorescence was monitored at 25° C. for an additional 15 minutes.

Data set [5] deals with red blood cells (pig whole blood). Description: Hemolysis assay. It counts as cell-based. Particulars: assay time extended to 24 hours. Here is the method: The blood cells in pig whole blood (2 mL, Pel-Free Biologicals, non-sterile, sodium citrate) were harvested (3000 rpm, 4° C., 20 minutes), and the red blood precipitate was washed and resuspended in phosphate buffered saline (pH 7.4). This diluted red blood cell stock solution (384 μL) was incubated with the antibiotic solution in DMSO (16 μL) in a 1 mL microtube to achieve the final concentration of the test compounds. […]
The solution was diluted with phosphate buffer saline (pH 7.4, 200 μL) at 25° C. and centrifuged (3000 rpm, 4° C., 20 minutes). The supernatant (200 μL) was transferred to a microtiter plate. A positive control (0.2% vol % Triton® X-100, 100% total hemolysis) and the negative control (no antibiotic, 0% hemolysis) were prepared. A350 was measured using a microplate reader (Molecular Devices®, Max Gemini EX). The % hemolysis was determined by calculating the following equation shown below (eq. 1).
Although the differences in mammalian and bacterial cell wall composition are extensive, including the more highly anionic composition of the bacterial cell wall responsible for a preferential and differential cation binding, lysis of mammalian cell membranes (red blood cells) are potential off-target consequences of cationic compounds that impact bacterial cell membrane integrity. […]

What is called MIC is the least concentration at which growth counts as inhibited.

Entries after “also recorded” stand apart in the source; their conditions may differ.

For the compound `CN(C)c1cc(NC(=O)CNC(C)(C)C)c(O)c2c1C[C@H]1C[C@H]3[C@H](N(C)C)C(O)=C(C(N)=O)C(=O)[C@@]3(O)C(O)=C1C2=O` [tigecycline], the “antibiotic susceptibility profile of the strain” value in data set [1] was “sensitive”. Further, the “emergence of resistance on serial passaging” value (“emergence of resistance” below) in data set [2] was “arises much faster and is much more pronounced; also recorded: arise much faster and was more pronounced”.

Regarding `CCCCCCCCCCCCCC[N+](C)(C)CCCNC(=O)[C@H]1NC(=O)[C@H]2NC(=O)[C@@H](NC(=O)[C@@H]3NC(=O)[C@H](CC(N)=O)NC(=O)[C@H](NC(=O)[C@@H](CC(C)C)NC)[C@H](O)c4ccc(c(Cl)c4)Oc4cc3cc(c4OC3OC(CO)C(O)[C@H](O)[C@@H]3O[C@H]3CC(C)(N)[C@H](O)[C@H](C)O3)Oc3ccc(cc3Cl)[C@H]2O)c2ccc(O)c(c2)-c2c(O)cc(O)cc21` (stereo partly shown) [Compound 12], the MIC turned out to be 2 µg/mL in data set [3] (Enterococcus faecalis, VRE, read-out: Antimicrobial Activity, MIC, VanA E. faecalis) and 2 µg/mL in data set [1] (Enterococcus faecium, read-out: Antimicrobial Activity, MIC, VanA E. faecium). Moreover, the “induced cell membrane permeability (propidium uptake)” value in data set [4] is listed as “produced pronounced, rapid cell membrane permeability”. The “red blood cell hemolytic activity, extended exposure” value in data set [5] was “performed worse than the control daptomycin”.

On to `CC(=O)NC[C@H]1CN(c2ccc(N3CCOCC3)c(F)c2)C(=O)O1` [linezolid], for which the “antibiotic susceptibility profile of the strain” value in data set [1] is “insensitive”. In addition, the “emergence of resistance” value in data set [2] was “arises much faster and is much more pronounced; also recorded: arise much faster and was more pronounced”.

Turning to `CCCCCCCCCC(=O)N[C@@H](Cc1c[nH]c2ccccc12)C(=O)N[C@H](CC(N)=O)C(=O)N[C@@H](CC(=O)O)C(=O)N[C@@H]1C(=O)NCC(=O)N[C@@H](CCCN)C(=O)N[C@@H](CC(=O)O)C(=O)N[C@H](C)C(=O)N[C@@H](CC(=O)O)C(=O)NCC(=O)N[C@H](CO)C(=O)N[C@@H]([C@H](C)CC(=O)O)C(=O)N[C@@H](CC(=O)c2ccccc2N)C(=O)O[C@@H]1C` [daptomycin], the “antibiotic susceptibility profile of the strain” value in data set [3] (VanA E. faecalis BM 4166) is “sensitive”. The “emergence of resistance” value in data set [2] is “arises much faster and is much more pronounced; also recorded: arise much faster and was more pronounced”.
